Data as given in patent US8524690B2, “DNA polymerase inhibitors composition and methods” (The Trustees of the University of Pennsylvania, priority 2007, dated 2013).

Key:
[1] = tested on: hair of the beard area; experiment: Topical 3% cidofovir ointment applied once a day to beard area of a patient: alopecia and local tolerability; format: in vivo, human
Experimental: A 3% topical ointment of cidofovir was prepared by mixing 3 g of cidofovir in 97 g of petrolatum.
(§1) A 3% topical preparation of cidofovir was applied to the beard area of a patient. The formulation was applied by the patient once a day to the affected areas of the face for the treatment of verruca vulgaris (warts). […] After 4-8 weeks the patient had alopecia in the areas of the face where the medication was applied. This was the only hair bearing area that the patient applied the medication to. The warts resolved in approximately 2-3 months.
The hair cycle time of the face is the shortest on the body. At any one point in time, up to 80% of the hair on the face (i.e. the beard area) is in the active growth phase.

[2] = tested on: verruca vulgaris (warts); experiment: Topical 3% cidofovir applied to the face for treatment of verruca vulgaris (warts); format: in vivo, human; settings: 3% topical ointment, once a day, one patient
Experimental: as §1, with “A 3% topical ointment of cidofovir was prepared by mixing 3 g of cidofovir in 97 g of petrolatum. A 3%” for “A 3%”

[3] = cited from earlier work

| Compound | time until alopecia in the areas of the face where the medication was applied ([1]; 3% topical ointment in petrolatum, once a day, beard area, one patient) | local reaction to application ([1]; 3% topical ointment, once a day, face, application discontinued for several days then resumed) | hair regrowth upon discontinuation of topical cidofovir ([1]; after stopping 3% topical cidofovir, beard area) | time until warts resolved [2] | oral bioavailability [3] |
| --- | --- | --- | --- | --- | --- |
| Nc1ccn(C[C@@H](CO)OCP(=O)(O)O)c(=O)n1 [cidofovir, (S)-1-[3-hydroxy-2-(phosphonylmethoxy)propyl]cytosine] | 4-8 weeks | mild inflammation | the hair grew back | 2-3 months | – |
| Nc1nc2c(ncn2COCCO)c(=O)[nH]1 [Acyclovir] | – | – | – | – | low oral bioavailability |
